From article PMC5889410, “Design and Biological Evaluation of Antifouling Dihydrostilbene Oxime Hybrids” (Marine Biotechnology (New York, N.y.), 2018)
≈ marks a conversion by molar mass, not a printed value.

Tests used:
[1] = tested on: Balanus improvisus cyprid larvae; conditions: cited from earlier work
[2] = tested on: marine bacteria; experiment: Bacterial growth assay, whole panel of ten strains; type: cell-based, 10 marine bacterial strains; conditions: tested up to 10 μg/mL
Excerpt: (§1) Cyprid larvae of B. improvisus were reared in a laboratory cultivating system at Tjärnö Marine Biological Laboratory, University of Gothenburg, Sweden, as previously described by Berntsson et al. ([2000]). Four pure, but non-axenic, marine microalgae (obtained from Algobank, Caen, France) and 10 marine bacterial strains were used (Table 1) as representative microfoulers. These strains represent fouling species encountered in both estuarine and marine environments (Moodie et al. [2017b]). The bacteria were grown at 26 °C in a marine medium, composed of 0.5% peptone (neutralized bacteriological peptone, Oxoid Ltd.) in filtered (Whatman 1001–270, pore size 11 μm) natural seawater. Microalgae were grown and maintained at 22 °C in F/2 medium.
(§2) Bacterial strain adhesion and growth were determined according to the methods of Thabard et al. ([2011]). Bacterial suspensions (100-μL aliquots, 2 × 10^8 colony forming units/mL) were aseptically added to the compound containing microplate wells (10–0.01 μg/mL), and the plates were incubated for 48 h at 26 °C. Media only was used as a blank. Bacterial growth was monitored spectroscopically at 630 nm. The minimal inhibitory concentration (MIC) for bacterial growth was defined as the lowest concentration which results in a decrease in OD. After 48-h incubation time, the bacterial adhesion assay was conducted by emptying the wells and rinsing with sterile seawater (100 μL) to remove non-attached cells, and air-drying at room temperature. The residual bacterial biofilm was stained with aqueous crystal violet (100 μL, 0.3% v/v) and the OD measured at 595 nm (Sonak and Bhosle [1995]). […] If inhibition was observed, toxicity tests were conducted. The well contents were transferred into a flask of fresh media, and growth was measured after 5 days of additional incubation. The mode of action was deemed biostatic if an increase in OD was measured at 595 nm (Moodie et al. [2017a]).

[3] = tested on: Vibrio natriegens; experiment: Bacterial growth assay (OD 630 nm); type: cell-based; conditions: 48 h incubation, 10–0.01 μg/mL tested, read-out: MIC against the growth of marine bacteria, V.n.
Excerpt: as §1, §2

[4] = tested on: Vibrio harveyi; experiment: Bacterial growth assay (OD 630 nm); type: cell-based; conditions: 48 h incubation, 10–0.01 μg/mL tested, read-out: MIC against the growth of marine bacteria, V.h.
Excerpt: as §1, §2

[5] = tested on: Vibrio aestuarianus; experiment: Bacterial growth assay (OD 630 nm); type: cell-based; conditions: 48 h incubation, 10–0.01 μg/mL tested, read-out: MIC against the growth of marine bacteria, V.a.
Excerpt: as §1, §2

[6] = tested on: Roseobacter litoralis; experiment: Bacterial growth assay (OD 630 nm); type: cell-based; conditions: 48 h incubation, 10–0.01 μg/mL tested, read-out: MIC against the growth of marine bacteria, R.l.
Excerpt: as §1, §2

[7] = tested on: Shewanella putrefaciens; experiment: Bacterial growth assay (OD 630 nm); type: cell-based; conditions: 48 h incubation, 10–0.01 μg/mL tested, read-out: MIC against the growth of marine bacteria, S.p.
Excerpt: as §1, §2

[8] = tested on: Vibrio proteolyticus; experiment: Bacterial growth assay (OD 630 nm); type: cell-based; conditions: 48 h incubation, 10–0.01 μg/mL tested, read-out: MIC against the growth of marine bacteria, V.p.
Excerpt: as §1, §2

[9] = tested on: Vibrio carchariae; experiment: Bacterial growth assay (OD 630 nm); type: cell-based; conditions: Vibrio harveyi, 48 h incubation, 10–0.01 μg/mL tested, read-out: MIC against the growth of marine bacteria, V.c.
Excerpt: as §1, §2

[10] = tested on: Halomonas aquamarina; experiment: Bacterial growth assay (OD 630 nm); type: cell-based; conditions: Vreelandella aquamarina, 48 h incubation, 10–0.01 μg/mL tested, read-out: MIC against the growth of marine bacteria, H.a.
Excerpt: as §1, §2

[11] = tested on: Pseudoalteromonas elyakovii; experiment: Bacterial growth assay (OD 630 nm); type: cell-based; conditions: 48 h incubation, 10–0.01 μg/mL tested, read-out: MIC against the growth of marine bacteria, P.e.
Excerpt: as §1, §2

[12] = tested on: Halamphora coffeaeformis; experiment: Microalgal growth assay (chlorophyll a); type: cell-based; conditions: Halamphora coffeiformis, 120 h, 5 days incubation, 10–0.01 μg/mL tested, read-out: MIC against the growth (G) of microalgae, H. coffeaformis
Excerpt: as §1
(§3) Microplates containing the compounds in ranging concentrations (10–0.01 μg/mL) were prepared from MeOH stock solutions as previously described (Trepos et al. [2014]; Moodie et al. [2017a]). Microalgal stock solutions were prepared using the chlorophyll analysis methodology of Chambers et al. ([2011]). The pretreated microplate wells were treated with 100 μL of the algal stock solutions (0.1 mg chlorophyll a/mL). The plates were then incubated for 5 days at 20 °C under constant light exposure (140 μmol m^−2 s^−1). Both microalgal adhesion and growth inhibition were measured. Growth was determined by analysis of liberated chlorophyll a after centrifugation and methanol addition. Chlorophyll a was quantified fluorometrically. MIC value for algal growth was defined as the lowest concentration yielding a decrease in chlorophyll a content. Microalgal adhesion was determined in an analogous manner where the non-attached algal cells were removed prior to methanol addition (100 μL), releasing chlorophyll a from the remaining algal biofilms. The MIC for adhesion was defined as the lowest compound concentration causing a reduction in […]. Toxicity experiments were performed in an analogous manner to those described for the bacterial assays.

[13] = tested on: Porphyridium purpureum; experiment: Microalgal growth assay (chlorophyll a); type: cell-based; conditions: 120 h, 5 days incubation, 10–0.01 μg/mL tested, read-out: MIC against the growth (G) of microalgae, P. purpureum
Excerpt: as §1, §3

[14] = tested on: Pleurochrysis roscoffensis; experiment: Microalgal growth assay (chlorophyll a); type: cell-based; conditions: Chrysotila roscoffensis, 120 h, 5 days incubation, 10–0.01 μg/mL tested, read-out: MIC against the growth (G) of microalgae, P. roscoffensis
Excerpt: as §1, §3

[15] = tested on: Cylindrotheca closterium; experiment: Microalgal growth assay (chlorophyll a); type: cell-based; conditions: 120 h, 5 days incubation, 10–0.01 μg/mL tested, read-out: MIC against the growth (G) of microalgae, C. closterium
Excerpt: as §1, §3

[16] = tested on: Halamphora coffeaeformis; experiment: Microalgal adhesion assay (chlorophyll a); type: cell-based; conditions: Halamphora coffeiformis, 120 h, 5 days incubation, 10–0.01 μg/mL tested, read-out: MIC against the adhesion (A) of microalgae, H. coffeaformis
Excerpt: as §1, §3

[17] = tested on: Porphyridium purpureum; experiment: Microalgal adhesion assay (chlorophyll a); type: cell-based; conditions: 120 h, 5 days incubation, 10–0.01 μg/mL tested, read-out: MIC against the adhesion (A) of microalgae, P. purpureum
Excerpt: as §1, §3

[18] = tested on: microalgae; experiment: Microalgal adhesion and growth, whole panel of four species; type: cell-based, four marine microalgae; conditions: 10–0.01 μg/mL tested
Excerpt: as §1, §3

[19] = tested on: Balanus improvisus cyprid larvae; experiment: whole plant or invertebrate; type: in vivo; conditions: for IC50: Amphibalanus improvisus, 120 h, read-out: IC50 (cyprid settlement inhibition); for Toxicity (%) (dead cyprids): Balanus improvisus, in vivo, 5 days, 5 μg/mL
Excerpt: as §1
Stock solutions of compounds in DMSO were serially diluted in untreated polystyrene Petri dishes containing 10 mL of filtered (0.2 μm) seawater, affording final concentrations ranging from 0.1 to 10 μg/mL. Freshly molted balanide cyprids (18–22) were added to each Petri dish and incubated at ambient temperature (20–25 °C) for 5 days. Cyprid metamorphosis was assessed using a dissecting microscope where the numbers of juvenile settled, free-swimming, and dead cyprids were noted. Initial compound screening was conducted at 5 μg/mL, and full IC50 determination was performed only on compounds displaying > 50% inhibition at that concentration. The IC50 was defined as the concentration preventing 50% of the cyprid settlement on the Petri dish surface. Each concentration was replicated four times (n = 4), and dishes containing 0.1% of DMSO were used as negative controls. The commercial AF agent Sea-nine™ was employed as a positive control.

[20] = tested on: marine bacteria; experiment: Bacterial adhesion assay, whole panel of ten strains; type: cell-based, 10 marine bacterial strains; conditions: tested up to 10 μg/mL, active = MIC of 10 μg/mL or below
Excerpt: as §1, §2

[21] = tested on: Pleurochrysis roscoffensis; experiment: Microalgal adhesion assay (chlorophyll a); type: cell-based; conditions: Chrysotila roscoffensis, 120 h, 5 days incubation, 10–0.01 μg/mL tested, read-out: MIC against the adhesion (A) of microalgae, P. roscoffensis
Excerpt: as §1, §3

[22] = tested on: Vibrio aestuarianus; experiment: Bacterial adhesion assay (crystal violet, OD 595 nm); type: cell-based; conditions: 48 h, read-out: MIC against the adhesion of marine bacteria, V.a.
Excerpt: as §1, §2

| Compound | MIC [3] [µg/mL] | MIC [4] [µg/mL] | MIC [5] [µg/mL] | MIC [6] [µg/mL] | MIC [7] [µg/mL] | MIC [8] [µg/mL] | MIC [9] [µg/mL] | MIC [10] [µg/mL] | MIC [11] [µg/mL] | MIC [12] [µg/mL] | MIC [13] [µg/mL] | MIC [14] [µg/mL] | MIC [15] [µg/mL] | IC50 [19] [µg/mL] | Toxicity (%) (dead cyprids) [19] | MIC / activity against the adhesion of all bacteria tested [20] | MIC [21] [µg/mL] | further results |
| --- | --- | --- | --- | --- | --- | --- | --- | --- | --- | --- | --- | --- | --- | --- | --- | --- | --- | --- |
| COc1cc(O)cc(CCc2cccc(O)c2)c1 [Compound 1, batatasin-III] |  |  |  |  |  |  |  |  |  |  |  |  |  |  |  |  |  | IC50 (cyprid settlement inhibition) ([1]; B. improvisus, ref Moodie et al. ([2017b])): 1.0 µg/mL (≈ 4.09 µM) |
| N[C@@H](Cc1ccc(O)cc1)C(=O)NCCc1ccc(O)cc1 [Compound 5, L-Tyrosinyltyramine] |  |  |  |  |  |  |  |  |  |  |  |  |  |  |  |  |  | activity against larvae settlement ([1]; B. improvisus larvae settlement, ref Ortlepp et al. [2007]): inactive |
| COc1ccc(C(Cc2ccccc2)=NO)cc1OC [Compound 7, 1-(3,4-dimethoxyphenyl)-1-hydroxyimino-2-phenylethane] | > 10 | 1 (≈ 3.69 µM) | 10 (≈ 36.9 µM) | > 10 | > 10 | > 10 | 10 (≈ 36.9 µM) | > 10 | > 10 | 0.1 (≈ 0.369 µM) | 10 (≈ 36.9 µM) | 0.01 (≈ 0.0369 µM) | 1 (≈ 3.69 µM) | 2.5 (≈ 9.21 µM) | 5.8 |  |  | MIC / activity against the growth of all bacteria tested [2]: modest activity; MIC [16]: 0.01 µg/mL (≈ 0.0369 µM); MIC [17]: 1 µg/mL (≈ 3.69 µM); MIC / activity against the attachment and growth of microalgae [18]: inhibited both the settlement and growth of all of the tested species |
| COc1ccc(C(Cc2ccc(O)cc2)=NO)cc1OC [Compound 8, 1-(3,4-dimethoxyphenyl)-1-hydroxyimino-2-(4’-hydroxyphenyl)-ethane] | > 10 | > 10 | > 10 | > 10 | 1 (≈ 3.48 µM) | > 10 | > 10 | 10 (≈ 34.8 µM) | > 10 | 10 (≈ 34.8 µM) | > 10 | 10 (≈ 34.8 µM) | 10 (≈ 34.8 µM) | 5 (≈ 17.4 µM) | 0.0 | ^aCompounds 7, 8, 10, 11, and 12 were inactive against the adhesion of all bacteria tested up to 10 μg/mL |  |  |
| COc1ccc(CC(=NO)c2ccc(OC)c(OC)c2)cc1 [Compound 9, 1-(3,4-dimethoxyphenyl)-1-hydroxyimino-2-(4’-methoxyphenyl)-ethane] | > 10 | > 10 | > 10 | > 10 | 0.1 (≈ 0.332 µM) | > 10 | > 10 | 10 (≈ 33.2 µM) | > 10 | 10 (≈ 33.2 µM) | > 10 | > 10 | 10 (≈ 33.2 µM) | 1.5 (≈ 4.98 µM) | 0.0 | displayed inhibitory activities | 10 (≈ 33.2 µM) |  |
| COc1ccc(CC(=NO)c2ccc(O)c(O)c2)cc1 [Compound 10, 1-(3,4-Dihydroxyphenyl)-1-Hydroxyimino-2-(4′-Methoxyphenyl)-Ethane] | 10 (≈ 36.6 µM) | > 10 | > 10 | > 10 | > 10 | > 10 | > 10 | > 10 | 1 (≈ 3.66 µM) | 1 (≈ 3.66 µM) | > 10 | 1 (≈ 3.66 µM) | 10 (≈ 36.6 µM) | 5 (≈ 18.3 µM) | 2.6 | ^aCompounds 7, 8, 10, 11, and 12 were inactive against the adhesion of all bacteria tested up to 10 μg/mL | 0.1 (≈ 0.366 µM) |  |
| COc1cc(C(Cc2ccc(O)cc2)=NO)ccc1O [Compound 12, 1-(3-methoxy-4-hydroxyphenyl)-1-hydroxyimino-2-(4’-hydroxyphenyl)-ethane] | > 10 | > 10 | > 10 | 1 (≈ 3.66 µM) | 0.1 (≈ 0.366 µM) | > 10 | > 10 | 0.1 (≈ 0.366 µM) | 10 (≈ 36.6 µM) | 10 (≈ 36.6 µM) | > 10 | 10 (≈ 36.6 µM) | > 10 | 2.5 (≈ 9.15 µM) | 3.5 |  |  | MIC / activity against the growth of all bacteria tested [2]: active against four strains |
| COc1cc(C(Cc2cccc(O)c2)=NO)ccc1O [Compound 13, 1-(3-methoxy-4-hydroxyphenyl)-1-hydroxyimino-2-(3’-hydroxyphenyl)-ethane] | 1 (≈ 3.66 µM) | > 10 | > 10 | > 10 | > 10 | > 10 | > 10 | > 10 | > 10 | 0.1 (≈ 0.366 µM) | 1 (≈ 3.66 µM) | 0.1 (≈ 0.366 µM) | 1 (≈ 3.66 µM) | 5 (≈ 18.3 µM) | 1.6 | displayed inhibitory activities | 1 (≈ 3.66 µM) | MIC [16]: 0.01 µg/mL (≈ 0.0366 µM); MIC [17]: 10 µg/mL (≈ 36.6 µM); MIC / activity against the attachment and growth of microalgae [18]: inhibited both the settlement and growth of all of the tested species; MIC [22]: 0.1 µg/mL (≈ 0.366 µM) |
